Measured values as given in the NIST ThermoML archive (doi:10.1021/je8006698).
Numbers after ± are expanded uncertainties.

Conditions: 298.15 K; 101.33 kPa; Liquid; Pycnometric method

| Structure (SMILES) | mass density |
| --- | --- |
| CCCCO [butan-1-ol] | 805.87 ± 0.72 kg/m3 |
| CCC(C)O (stereo not drawn) [butan-2-ol] | 802.73 ± 0.72 kg/m3 |
| CCO [ethanol] | 785.29 ± 0.71 kg/m3 |
| O [water] | 997.17 ± 0.9 kg/m3 |

Further lines, results first:

| mass density | Structure (SMILES) |
| --- | --- |
| 765.68 ± 0.69 kg/m3 | CCC(C)(C)OC [2-methoxy-2-methylbutane] |
| 786.64 ± 0.71 kg/m3 | CO [methanol] |
| 799.89 ± 0.72 kg/m3 | CCCO [propan-1-ol] |
| 781.34 ± 0.7 kg/m3 | CC(C)O [propan-2-ol] |
